# Assay results reported in US20220002314A1 (priority 2018, published 2022).
# Like-named read-outs stand apart in the source and are kept apart here.
# Key:
# [1] = target: Human α2δ-1 subunit of Cav2.2 calcium channel (Homo sapiens, UniProt P54289); test: biochemical; format: binding
# Human μ-opioid receptor = Human μ-opioid receptor (Homo sapiens, UniProt P35372); test: biochemical; format: binding
# Sequence of Human μ-opioid receptor (P35372 whole entry): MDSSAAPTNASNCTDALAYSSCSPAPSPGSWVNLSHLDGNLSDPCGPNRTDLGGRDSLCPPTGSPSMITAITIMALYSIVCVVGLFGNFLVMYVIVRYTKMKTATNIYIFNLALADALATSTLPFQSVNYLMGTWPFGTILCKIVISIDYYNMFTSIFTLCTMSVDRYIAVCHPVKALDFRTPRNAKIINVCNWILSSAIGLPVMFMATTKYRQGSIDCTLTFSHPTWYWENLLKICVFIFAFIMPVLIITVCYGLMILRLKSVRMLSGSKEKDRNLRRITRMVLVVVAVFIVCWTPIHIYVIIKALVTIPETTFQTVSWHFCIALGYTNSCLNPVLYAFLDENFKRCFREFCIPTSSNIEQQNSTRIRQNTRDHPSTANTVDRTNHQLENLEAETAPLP
# Sequence of Human α2δ-1 subunit of Cav2.2 calcium channel (P54289 25-1103): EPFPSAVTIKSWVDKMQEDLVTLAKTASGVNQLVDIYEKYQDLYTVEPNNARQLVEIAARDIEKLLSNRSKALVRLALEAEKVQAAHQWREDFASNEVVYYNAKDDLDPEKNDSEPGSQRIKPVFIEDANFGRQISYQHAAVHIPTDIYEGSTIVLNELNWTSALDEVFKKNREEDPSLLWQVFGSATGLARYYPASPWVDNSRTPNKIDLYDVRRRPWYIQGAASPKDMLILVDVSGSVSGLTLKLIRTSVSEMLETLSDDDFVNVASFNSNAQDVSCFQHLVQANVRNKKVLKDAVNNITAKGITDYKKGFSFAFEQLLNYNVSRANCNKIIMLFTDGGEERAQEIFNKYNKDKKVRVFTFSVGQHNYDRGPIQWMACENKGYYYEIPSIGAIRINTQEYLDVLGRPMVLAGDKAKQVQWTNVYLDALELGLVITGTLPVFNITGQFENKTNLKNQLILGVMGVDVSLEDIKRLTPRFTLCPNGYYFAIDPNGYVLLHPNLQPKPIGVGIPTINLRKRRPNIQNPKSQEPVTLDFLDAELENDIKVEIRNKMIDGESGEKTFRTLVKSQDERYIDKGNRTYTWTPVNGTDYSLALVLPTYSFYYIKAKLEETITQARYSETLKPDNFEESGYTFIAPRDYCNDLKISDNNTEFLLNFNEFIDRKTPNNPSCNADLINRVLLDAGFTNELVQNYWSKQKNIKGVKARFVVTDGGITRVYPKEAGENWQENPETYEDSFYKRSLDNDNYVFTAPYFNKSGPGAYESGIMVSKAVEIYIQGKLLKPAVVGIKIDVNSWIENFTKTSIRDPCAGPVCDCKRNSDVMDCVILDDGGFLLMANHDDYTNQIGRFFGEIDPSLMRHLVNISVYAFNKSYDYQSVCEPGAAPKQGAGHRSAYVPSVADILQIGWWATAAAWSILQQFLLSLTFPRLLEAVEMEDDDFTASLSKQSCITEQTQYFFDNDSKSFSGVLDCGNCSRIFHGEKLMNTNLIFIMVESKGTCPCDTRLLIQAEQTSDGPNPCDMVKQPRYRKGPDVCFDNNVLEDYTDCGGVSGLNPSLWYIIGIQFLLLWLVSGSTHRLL
Structure (SMILES),Ki [1],Ki (Human μ-opioid receptor),Ki ([1]; read-out: α2δ-1 binding),Ki (Human μ-opioid receptor; read-out: μ-binding)
"CCC[C@H](c1nc2ccc(Br)cc2c(=O)n1CC)[C@@H]1CCN[C@@H](C)C1 [Example 193, 6-bromo-3-ethyl-2-((S)-1-((2S,4R)-2-methylpiperidin-4-yl)butyl)quinazolin-4(3H)-one]",> 5000 nM,> 500 nM,–,–
"CCC[C@H](c1nc2ccc(Br)cc2c(=O)n1CC)[C@@H]1CCNCC1(F)F [Example 194, 6-Bromo-2-((S)-1-((S)-3,3-difluoropiperidin-4-yl)butyl)-3-ethylquinazolin-4(3H)-one]",> 5000 nM,> 500 nM,–,–
"CCC[C@@H](c1nc2ccc(Br)cc2c(=O)n1CC)[C@H]1CCNCC1(F)F [Example 195, 6-bromo-2-((R)-1-((R)-3,3-difluoropiperidin-4-yl)butyl)-3-ethylquinazolin-4(3H)-one]",< 500 nM,> 500 nM,–,–
"CCC[C@H](c1nc2ccc(Br)cc2c(=O)n1CC)[C@H]1CCNCC1(F)F [Example 196, 6-bromo-2-((S)-1-((R)-3,3-difluoropiperidin-4-yl)butyl)-3-ethylquinazolin-4(3H)-one]",> 5000 nM,> 500 nM,–,–
"CCC[C@@H](c1nc2ccc(Br)cc2c(=O)n1CC)[C@@H]1CCNCC1(F)F [Example 197, 6-bromo-2-((R)-1-((S)-3,3-difluoropiperidin-4-yl)butyl)-3-ethylquinazolin-4(3H)-one]",500 to 5000 nM,> 500 nM,–,–
"CCC[C@H](c1nc2ccc(Cl)cc2c(=O)n1C)N1CCN[C@@H](C)C1 [Example 198, 6-chloro-3-methyl-2-((R)-1-((S)-3-methylpiperazin-1-yl)butyl)quinazolin-4(3H)-one]",< 500 nM,100 to 500 nM,–,–
"CCC[C@H](c1nc2c(F)cc(Cl)cc2c(=O)n1CC)N1CCNCC1 [Example 199, (R)-6-chloro-3-ethyl-8-fluoro-2-(1-(piperazin-1-yl)butyl)quinazolin-4(3H)-one]",< 500 nM,100 to 500 nM,–,–
"CCC[C@H](c1nc2c(F)cc(F)cc2c(=O)n1CC)N1CCNCC1 [Example 200, (R)-3-ethyl-6,8-difluoro-2-(1-(piperazin-1-yl)butyl)quinazolin-4(3H)-one]",< 500 nM,100 to 500 nM,–,–
"CCC[C@H](c1nc2c(F)cc(F)cc2c(=O)n1CC)N1CCN[C@@H](C)C1 [Example 201, 3-ethyl-6,8-difluoro-2-((R)-1-((S)-3-methylpiperazin-1-yl)butyl)quinazolin-4(3H)-one]",< 500 nM,< 100 nM,–,–
"CCC[C@H](c1nc2ccc(F)cc2c(=O)n1CCC)N1CCN[C@@H](C)C1 [Example 202, 6-fluoro-2-((R)-1-((S)-3-methylpiperazin-1-yl)butyl)-3-propylquinazolin-4(3H)-one]",< 500 nM,> 500 nM,–,–
"CCC[C@H](c1nc2c(F)cccc2c(=O)n1CC)N1CCN[C@@H](C)C1 [Example 203, 3-ethyl-8-fluoro-2-((R)-1-((S)-3-methylpiperazin-1-yl)butyl)quinazolin-4(3H)-one]",< 500 nM,> 500 nM,–,–
"CCC[C@H](c1nc2ccc(OC(F)(F)F)cc2c(=O)n1CC)N1CCN[C@@H](C)C1 [Example 204, 3-ethyl-2-((R)-1-((S)-3-methylpiperazin-1-yl)butyl)-6-(trifluoromethoxy)quinazolin-4(3H)-one]",< 500 nM,> 500 nM,–,–
"CCC[C@H](c1nc2ccc(F)cc2c(=O)n1C)N1CCN[C@@H](C)C1 [Example 205, 6-fluoro-3-methyl-2-((R)-1-((S)-3-methylpiperazin-1-yl)butyl)quinazolin-4(3H)-one]",< 500 nM,100 to 500 nM,–,–
"CCC[C@H](c1nc2cc(Cl)c(Cl)cc2c(=O)n1C)N1CCN[C@@H](C)C1 [Example 206, 6,7-dichloro-3-methyl-2-((R)-1-((S)-3-methylpiperazin-1-yl)butyl)quinazolin-4(3H)-one]",< 500 nM,100 to 500 nM,–,–
"CCC[C@H](c1nc2ccc(C(F)(F)F)cc2c(=O)n1CC)N1CCN[C@@H](C)C1 [Example 207, 3-ethyl-2-((R)-1-((S)-3-methylpiperazin-1-yl)butyl)-6-(trifluoromethyl)quinazolin-4(3H)-one]",< 500 nM,100 to 500 nM,–,–
"CCC[C@H](c1nc2cc(F)c(Br)cc2c(=O)n1CC)N1CCN[C@H](C)C1 [Example 208, 6-bromo-3-ethyl-7-fluoro-2-((R)-1-((R)-3-methylpiperazin-1-yl)butyl)quinazolin-4(3H)-one]",< 500 nM,> 500 nM,–,–
"CCC[C@@H](c1nc2cc(F)c(Br)cc2c(=O)n1CC)N1CCN[C@H](C)C1 [Example 209, 6-bromo-3-ethyl-7-fluoro-2-((S)-1-((R)-3-methylpiperazin-1-yl)butyl)quinazolin-4(3H)-one]",< 500 nM,100 to 500 nM,–,–
"CCC[C@H](c1nc2cc(F)c(OC)cc2c(=O)n1CC)N1CCN[C@H](C)C1 [Example 210, 3-ethyl-7-fluoro-6-methoxy-2-((R)-1-((R)-3-methylpiperazin-1-yl)butyl)quinazolin-4(3H)-one]",< 500 nM,> 500 nM,–,–

Structure (SMILES),Ki [1],Ki (Human μ-opioid receptor),Ki ([1]; read-out: α2δ-1 binding),Ki (Human μ-opioid receptor; read-out: μ-binding)
"CCC[C@H](c1nc2ccc(OC)cc2c(=O)n1CC)N1CCN[C@H](C)C1 [Example 211, 3-ethyl-6-methoxy-2-((R)-1-((R)-3-methylpiperazin-1-yl)butyl)quinazolin-4(3H)-one]",< 500 nM,> 500 nM,–,–
"CCC[C@H](c1nc2ccc(Br)cc2c(=O)n1CC)N1CCN[C@@H](CC)C1 [Example 212, 6-bromo-3-ethyl-2-((R)-1-((S)-3-ethylpiperazin-1-yl)butyl)quinazolin-4(3H)-one]",< 500 nM,> 500 nM,–,–
"CCC[C@H](c1nc2cc(F)c(OC)cc2c(=O)n1CC)N1CCN[C@@H](C)C1 [Example 213, 3-ethyl-7-fluoro-6-methoxy-2-((R)-1-((S)-3-methylpiperazin-1-yl)butyl)quinazolin-4(3H)-one]",< 500 nM,> 500 nM,–,–
"CCC[C@H](c1nc2ccc(F)cc2c(=O)n1CC)N1CCN[C@@H](C)C1 [Example 214, 3-ethyl-6-fluoro-2-((R)-1-((S)-3-methylpiperazin-1-yl)butyl)quinazolin-4(3H)-one]",< 500 nM,100 to 500 nM,–,–
"CCC[C@H](c1nc2ccc(OC)cc2c(=O)n1CC)N1CCN[C@@H](C)C1 [Example 215, 3-ethyl-6-methoxy-2-((R)-1-((S)-3-methylpiperazin-1-yl)butyl)quinazolin-4(3H)-one]",< 500 nM,> 500 nM,–,–
"CCC[C@H](c1nc2cc(F)c(F)cc2c(=O)n1CC)N1CCN[C@@H](C)C1 [Example 216, 3-ethyl-6,7-difluoro-2-((R)-1-((S)-3-methylpiperazin-1-yl)butyl)quinazolin-4(3H)-one]",< 500 nM,100 to 500 nM,–,–
"CCC[C@H](c1nc2c(F)cc(Cl)cc2c(=O)n1CC)N1CCN[C@@H](C)C1 [Example 217, 6-chloro-3-ethyl-8-fluoro-2-((R)-1-((S)-3-methylpiperazin-1-yl)butyl)quinazolin-4(3H)-one]",< 500 nM,< 100 nM,–,–
"CCC[C@H](c1nc2ccc(F)c(F)c2c(=O)n1CC)N1CCN[C@@H](C)C1 [Example 218, 3-ethyl-5,6-difluoro-2-((R)-1-((S)-3-methylpiperazin-1-yl)butyl)quinazolin-4(3H)-one]",< 500 nM,100 to 500 nM,–,–
"CCC[C@H](c1nc2ccc(Br)cc2c(=O)n1CC)N1CCN[C@@H](COC)C1 [Example 219, 6-bromo-3-ethyl-2-((R)-1-((R)-3-(methoxymethyl)piperazin-1-yl)butyl)quinazolin-4(3H)-one]",< 500 nM,> 500 nM,–,–
"CCC[C@@H](c1nc2ccc(Br)cc2c(=O)n1CC)N1CCN[C@@H](COC)C1 [Example 220, 6-bromo-3-ethyl-2-((S)-1-((R)-3-(methoxymethyl)piperazin-1-yl)butyl)quinazolin-4(3H)-one]",> 5000 nM,> 500 nM,–,–
"CCC[C@H](c1nc2cc(F)c(Cl)cc2c(=O)n1C)N1CCN[C@@H](C)C1 [Example 221, 6-chloro-7-fluoro-3-methyl-2-((R)-1-((S)-3-methylpiperazin-1-yl)butyl)quinazolin-4(3H)-one]",500 to 5000 nM,< 100 nM,–,–
"CCC[C@H](c1nc2ccc(F)c(F)c2c(=O)n1C)N1CCN[C@@H](C)C1 [Example 222, 5,6-difluoro-3-methyl-2-((R)-1-((S)-3-methylpiperazin-1-yl)butyl)quinazolin-4(3H)-one]",–,–,500 to 5000 nM,> 500 nM
"CCC[C@H](c1nc2c(F)cc(Cl)cc2c(=O)n1C)N1CCN[C@@H](C)C1 [Example 223, 6-chloro-8-fluoro-3-methyl-2-((R)-1-((S)-3-methylpiperazin-1-yl)butyl)quinazolin-4(3H)-one]",> 5000 nM,< 100 nM,–,–
"CCC[C@H](c1nc2ccc(Br)cc2c(=O)n1CC)N1CCNC(C)(C)C1 [Example 224, (R)-6-bromo-2-(1-(3,3-dimethylpiperazin-1-yl)butyl)-3-ethylquinazolin-4(3H)-one]",> 5000 nM,< 100 nM,–,–
"CCC[C@H](c1nc2c(F)cc(F)cc2c(=O)n1C)N1CCN[C@@H](C)C1 [Example 225, 6,8-difluoro-3-methyl-2-((R)-1-((S)-3-methylpiperazin-1-yl)butyl)quinazolin-4(3H)-one]",500 to 5000 nM,100 to 500 nM,–,–
"CCC[C@H](c1nc2c(F)cc(F)c(F)c2c(=O)n1CC)N1CCN[C@@H](C)C1 [Example 226, 3-ethyl-5,6,8-trifluoro-2-((R)-1-((S)-3-methylpiperazin-1-yl)butyl)quinazolin-4(3H)-one]",500 to 5000 nM,100 to 500 nM,–,–
"CCC[C@@H](c1nc2ccc(Br)cc2c(=O)n1CC)N1C[C@H](C)N[C@@H](C)C1 [Example 227, 6-Bromo-2-((S)-1-((3S,5S)-3,5-dimethylpiperazin-1-yl)butyl)-3-ethylquinazolin-4(3H)-one]",> 5000 nM,> 500 nM,–,–
"CCC[C@H](c1nc2ccc(Br)cc2c(=O)n1CC)N1C[C@H](C)N[C@@H](C)C1 [Example 228, 6-Bromo-2-((R)-1-((3S,5S)-3,5-dimethylpiperazin-1-yl)butyl)-3-ethylquinazolin-4(3H)-one]",> 5000 nM,< 100 nM,–,–
